In patent publication US9006191B2, “Silencing of polo-like kinase expression using interfering RNA” (Protiva Biotherapeutics, Inc., priority 2007, dated 2015):
Several values for one entry are separate records, joined by “and”; a condition that tells them apart may be missing. Equal entries are not always repeated. Strand notation (5' to 3'): a small letter for the sugar, then the base; units joined by * are phosphorothioate-linked, units joined directly phosphodiester-linked; [ ] holds rarer units or linkages, { } end groups; capitals alone tell only the bases. d = 2'-deoxy (DNA); r = 2'-OH (RNA)

Columns and labels:
hepatocellular carcinoma = settings: patients with advanced disease, phase III; cited from earlier work
Hep3B liver tumors = assay: Intrahepatic Hep3B tumor model (survival, body weight, tumor burden); assay type: in vivo; settings: Hep3B-nu/nu mouse model, 2 mg/kg twice weekly d11-d28
Method: SNALP containing PLK-1 siRNA (“1:57” SNALP formulation: 1.4% PEG-cDMA; 57.1% DLinDMA; 7.1% DPPC; and 34.3% cholesterol) were tested for their effects on the survival of […] mice bearing Hep3B liver tumors.
Intrahepatic tumor models. Liver tumors were established in mice by direct intrahepatic injection of Hep3B or Neuro2a tumor cells (45). Female scid/beige mice (Charles River Laboratories) and male A/J mice (Jackson Laboratories) were used as hosts for the Hep3B and Neuro2a tumors, respectively. Animals received Anafen by SC injection immediately prior to surgery. Individual mice were anaesthetized by isoflourane gas inhalation and eye lube applied to prevent excessive eye drying. While maintained under gas anaesthesia, a single 1.5 cm incision across the midline was made below the sternum and the left lateral hepatic lobe exteriorized. 1×10^6 Hep3B cells or 1×10^5 Neuro2a cells suspended in 25 μL PBS were injected slowly into the lobe at a shallow angle using a Hamilton syringe and 30G needle. A swab was then applied to the puncture wound to stop any bleeding prior to suturing. Mice were allowed to recover from anaesthesia in a sterile cage and monitored closely for 2-4 h before being returned to conventional housing.
Eight to 11 days after tumor implantation, mice were randomized into treatment groups. siRNA SNALP formulations or PBS vehicle control were administered by standard intravenous injection via the lateral tail vein, calculated on a mg siRNA/kg basis according to individual animal weights (10 mL/kg injection volume). Body weights were then monitored throughout the duration of the study as an indicator of developing tumor burden and treatment tolerability. For efficacy studies, defined humane endpoints were determined as a surrogate for survival. Assessments were made by qualified veterinary technicians based on a combination of clinical signs, weight loss, and abdominal distension to define the day of euthanization due to tumor burden.
Measurement of human PLK-1 and GAPDH mRNA in tumor tissues. Tumors were harvested directly into RNALater and stored at 4° C. until processing. 100 mg tumor tissue was homogenized in Tissue and Lysis Solution (EpiCentre Biotechnologies) containing […] proteinase K (EpiCentre) in a Fastprep tissue homogenizer followed by incubation in a 65° C. waterbath for 15 min and centrifuged to clarify lysates. mRNA analysis in FIG. 33B was performed on purified RNA isolated according the 5′-RACE-PCR protocol. Human PLK-1 and GAPDH mRNA were measured in tumor lystes by the QuantiGene bDNA assay (Panomics) as per the manufacturer's instructions (Quantigene 1.0 Manual). […] Data were expressed as mean PLK-1:GAPDH ratio+/−SD of individual animals. Tumor burden was assessed by homogenizing the complete liver from tumor bearing mice and measuring the total hGAPDH signal (RLU's) within the liver. Values were expressed as hGAPDH RLU/mg total liver.

IFIT1 mRNA, serum IFNα [1] = assay: In vivo immune stimulation assay in Balb/c mice (IFIT1 mRNA, serum IFNα); settings: 2 mg/kg IV, 4 h
IFIT1 mRNA, serum IFNα [2] = settings: mouse, in vivo, iv
[3] = SNALP particle size and polydispersity; assay type: physicochemical
HeLa cells = assay: Monoastral spindle formation in HeLa cells; assay type: cell-based, human; settings: 20 nM, 16 h
Method: HeLa cells were treated for 16 h with (A) Luc or (B) KSP2263 siRNA at 20 nM then immunostained for α-tubulin (FITC). DNA was stained with DAPI and flourescent images captured and overlayed.

KSP mRNA = KSP mRNA silencing in Neuro2a cells (bDNA assay); assay type: cell-based, mouse; settings: 24 h after transfection
From the text: Activity of the 2′OMe-modified panels of (A) PLK1424 and (B) PLK773 siRNA. Unmodified PLK1424 or PLK773 siRNA (black) were compared in the Hep3B cell viability assay to the 2′OMe modified duplexes 1/A, 2/A, 1/B, 2/B, 1/C, or 2/C that comprise the respective 2′OMe sense/antisense oligonucleotides (see, Table 6). Data are mean viability of triplicate cultures relative to PBS treated cells and representative of 2 independent experiments using SNALP-formulated siRNA. (C) Cytokine induction by unmodified and 2′OMe PLK-1 siRNA in vitro. Murine Flt3L DC were treated with 5 μg/mL unmodified PLK773 or PLK1424 siRNA duplexes (773, 1424) and their constituent sense (S) or antisense (AS) oligonucleotides or the 2′OMe siRNA duplexes PLK773-1/B and PLK1424-2/A formulated in SNALP. IFNα and IL-6 were assayed in culture supernates at 24 h. Values are mean+SD of 3 separate experiments conducted in triplicate cultures. (D,E) Activity of SNALP-formulated KSP2263 siRNA in murine Neuro2a cells. (D) Correlation between KSP mRNA silencing and cell viability relative to PBS control. KSP mRNA was determined by bDNA analysis at 24 h. Duplicate plates were assessed for cell viability at 72 h. (E) Activity screen comparing the unmodified KSP2263 siRNA to the panel of 2′OMe-modified duplexes (see, Table 6) in the Neuro2a cell viability assay. Data represents mean+/−SD triplicate cultures, relative to PBS treatment. […]

Neuro2A cells = assay: Neuro2A cell viability assay (CellTiter-Blue); assay type: cell-based; settings: mouse Neuro2A cells, SNALP-formulated siRNA, viability at 72 h relative to PBS
Method: Various PLK-1 siRNAs were formulated as SNALP (“2:40” SNALP formulation: 2% PEG-cDMA; 40% DLinDMA; 10% DSPC; and 48% cholesterol) and evaluated for their inhibitory effects on cell growth in vitro. HT29 (human colon adenocarcinoma) or Neuro2A (mouse neuroblastoma) cells were treated with various PLK-1 SNALP at a range of siRNA concentrations and their effect on cell viability was evaluated. Viability of cell cultures is expressed as % viability relative to PBS treated controls.
Additional PLK-1 siRNA molecules were formulated as SNALP (“2:40” SNALP formulation: 2% PEG-cDMA; 40% DLinDMA; 10% DSPC; and 48% cholesterol) and evaluated for their inhibitory effects on cell growth in vitro. HT29 or Neuro2A cells were plated in triplicate at 5000 cells/well and 2500 cells/well, respectively. PLK-1 SNALP dosages were as follows: 25 nM; 5 nM; and 1 nM. Cell viability analysis was performed at 72 hours following transfection. SNALP containing a non-targeting (GFP) siRNA were used as a negative control.
Additional PLK-1 siRNA molecules were formulated as SNALP (“2:40” SNALP formulation: 2% PEG-cDMA; 40% DLinDMA; 10% DSPC; and 48% cholesterol) and evaluated for their inhibitory effects on cell growth in vitro. HT29 or Neuro2A cells were plated in triplicate at 5000 cells/well and 2500 cells/well, respectively. PLK-1 SNALP dosages were as follows: 30 nM; 10 nM; and 3.3 nM. Cell viability analysis was performed at 72 hours following transfection. SNALP containing a non-targeting (GFP) siRNA were used as a negative control.

IFN-α, IFIT1 mRNA = assay: In vivo immune stimulation assay in CD1 ICR mice (plasma IFN-α, IFIT1 mRNA); design: species or system mouse; settings: 1:57 PEG-cDMA SNALP, 3 mg/kg IV, 4 h
Method: In vivo immune stimulation assays. Animal studies were performed to test for the immunostimulatory activity of SNALP containing 2′OMe-modified PLK1424 siRNAs. Six-week-old female CD1 ICR mice were used in this study. […] The tolerability of the treatment regime was monitored by animal appearance and behavior.

[4] = tested on: anti-PEG-lipid IgG and IgM antibodies; assay: In vivo PEG-lipid antibody induction assay; design: species or system mouse; settings: CD1 ICR mice, 1:57 SNALP IV at Days 0, 7, 14; plasma Days 7, 14, 21
Method: In vivo PEG-lipid antibody induction assays. Animal studies were performed to test for the induction of an antibody response to 2′OMe-modified PLK1424 siRNAs that were encapsulated in a 1:57 SNALP formulation containing the lipid conjugate PEG-cDMA. Six-week-old female CD1 ICR mice were used in this study. […] Mice were then sacrificed on Day 21. The tolerability of the treatment regime was monitored by animal appearance, behavior, and body weight. Anti-PEG-lipid IgG and IgM antibodies in plasma at Days 7, 14, and 21 were measured by ELISA.

CNC(=O)c1cc(Oc2ccc(NC(=O)Nc3ccc(Cl)c(C(F)(F)F)c3)cc2)ccn1 [Sorafenib]
survival time (hepatocellular carcinoma): 10.7 mo

Luc: unmodified siRNA targeting luciferase, SEQ ID NO:231/232 (chain 1 GAUUAUGUCCGGUUAUGUAUU; chain 2 UACAUAACCGGACAUAAUCUU; unmodified RNA)
median survival, Study (A) (Hep3B liver tumors): 67 days
median survival, study (B) (Hep3B liver tumors): undefined
increase in IFIT1 mRNA in the liver compared to PBS (IFIT1 mRNA, serum IFNα [1]): 83 fold
increase in IFIT1 mRNA in the spleen compared to PBS (IFIT1 mRNA, serum IFNα [1]): 247 fold
serum IFNα / serum cytokine response (IFIT1 mRNA, serum IFNα [2]): detection of systemic IFNα
mean SNALP particle size [3]: 90 nm and 82 nm and 72 nm

KSP2263: published siRNA targeting KSP, SEQ ID NO:225/226 (chain 1 rCrUrGrArArGrArCrCrUrGrArArGrArCrArArUdTdT; chain 2 rArUrUrGrUrCrUrUrCrArGrGrUrCrUrUrCrArGdTdT)
monoastral spindle phenotype (HeLa cells): monoastral spindles
mean SNALP particle size [3]: 88 nm
polydispersity [3]: 0.07
KSP mRNA (KSP mRNA): dose-dependent reductions in KSP mRNA
cell viability / inhibition of cell growth (Neuro2A cells): loss of cell viability at 72 h

PLK1424 2/3: 2′OMe-modified PLK1424 siRNA, SEQ ID NO:400/215 (chain 1 AGANCACCCNCCUNAAANANU; chain 2 UAUUUAANGAGGGUGANCUUU; 2'-OMe modifications, chemistry not fully specified)
IFIT1 induction (QG analysis) (IFN-α, IFIT1 mRNA): no significant IFIT1 induction above that of empty SNALP
IgG / IgM antibody response against PEG-lipid (PEG-cDMA) [4]: almost no detectable antibody responses against the PEG-lipid

PLK1424 2/6: 2′OMe-modified PLK1424 siRNA, SEQ ID NO:400/403 (chain 1 AGANCACCCNCCUNAAANANU; chain 2 UAUUUAANGAGGGUNANCUNC; 2'-OMe modifications, chemistry not fully specified)
IFIT1 induction (QG analysis) (IFN-α, IFIT1 mRNA): no significant IFIT1 induction above that of empty SNALP
IgG / IgM antibody response against PEG-lipid (PEG-cDMA) [4]: almost no detectable antibody responses against the PEG-lipid

PLK1424 2/4: 2′OMe-modified PLK1424 siRNA, SEQ ID NO:400/401 (chain 1 AGANCACCCNCCUNAAANANU; chain 2 UAUUUAANGAGGGUGANCUUC; 2'-OMe modifications, chemistry not fully specified)
IFIT1 induction (QG analysis) (IFN-α, IFIT1 mRNA): no significant IFIT1 induction above that of empty SNALP
IgG / IgM antibody response against PEG-lipid (PEG-cDMA) [4]: almost no detectable antibody responses against the PEG-lipid
